According to patent US10336762B2 (priority 2017, dated 2019):
pEC50, pIC50: −log10 of the molar value. Where two headings read alike, the source gives them in different places.

Legend:
IRAK4 enzyme = IRAK4 enzyme (Homo sapiens (Human), UniProt Q9NWZ3); test: biochemical; assay type: biochemical
TNFα = test: cells; assay type: cell-based, human; details: read-out: EC50 TNF
[1] = IRAK4 enzyme, TR-FRET (HTRF), 500 μM ATP
[2] = Homo sapiens, Monocyte, LPS-stimulated human monocytes, TNFα content
[3] = IRAK4 enzyme, TR-FRET, 500 μM ATP
[4] = Homo sapiens, Monocyte, LPS-stimulated human monocytes, TNFα by TR-FRET

Chain of IRAK4 enzyme (Q9NWZ3 whole entry): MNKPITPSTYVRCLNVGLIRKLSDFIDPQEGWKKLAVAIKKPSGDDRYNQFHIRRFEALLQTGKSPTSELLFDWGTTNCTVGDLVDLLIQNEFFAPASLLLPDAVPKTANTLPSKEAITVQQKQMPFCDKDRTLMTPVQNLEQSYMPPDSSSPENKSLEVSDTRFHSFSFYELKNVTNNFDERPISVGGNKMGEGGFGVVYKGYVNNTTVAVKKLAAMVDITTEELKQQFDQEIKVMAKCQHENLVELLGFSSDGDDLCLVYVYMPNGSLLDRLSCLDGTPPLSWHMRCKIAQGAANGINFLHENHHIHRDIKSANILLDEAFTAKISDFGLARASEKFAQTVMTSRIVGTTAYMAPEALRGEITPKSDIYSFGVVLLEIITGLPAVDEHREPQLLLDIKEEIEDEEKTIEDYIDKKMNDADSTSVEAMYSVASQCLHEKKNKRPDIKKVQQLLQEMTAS

Q: `CC(=O)NCC12CC(Nc3cc(-c4ccc5cc(C#N)cnn45)ncc3C(=O)NC[C@@H](F)C(C)(C)O)(C1)C2` [Example 546, (R)-4-((3-(acetamidomethyl)bicyclo[1.1.1]pentan-1-yl)amino)-6-(3-cyano-pyrrolo[1,2-b]pyridazin-7-yl)-N-(2-fluoro-3-hydroxy-3-methylbutyl) nicotinamide] was tested. Which pIC50 (IRAK4 enzyme; [1]) did it give?
A: 9.00

Q: What about the pEC50 (TNFα; [2]) of the same molecule?
A: 7.05

Q: With `CC(C)(F)[C@H](F)CNC(=O)c1cnc(-c2ccc3cc(C#N)cnn23)cc1NC12CCC(O)(CC1)CC2` [Example 353, (R)-6-(3-cyanopyrrolo[1,2-b]pyridazin-7-yl)-N-(2,3-difluoro-3-methylbutyl)-4-((4-hydroxybicyclo[2.2.2]octan-1-yl)amino) nicotinamide] as the molecule, how does the pIC50 (IRAK4 enzyme; [3]) read?
A: > 9.00

Q: What about the pEC50 (TNFα; [2]) of the same molecule?
A: 7.80

Q: How did the pIC50 (IRAK4 enzyme; [3]) turn out when `CNC(=O)O[C@H]1C[C@@](C)(Nc2cc(-c3ccc4cc(C#N)cnn34)ncc2C(=O)NC[C@@H](F)C(C)(C)O)C1` [Example 356] was run?
A: 8.22

Q: And the pEC50 (TNFα; [2])?
A: 6.10

Q: `N#Cc1cnn2c(-c3cc(NC45CCC(O)(CC4)CC5)c(C(=O)NCc4ccncc4)cn3)ccc2c1` [Example 932, 6-(3-cyanopyrrolo[1,2-b]pyridazin-7-yl)-4-((4-hydroxybicyclo[2.2.2]octan-1-yl)amino)-N-(pyridin-4-ylmethyl) nicotinamide] was tested. Which pIC50 (IRAK4 enzyme; [3]) did it give?
A: 8.52

Q: And the pEC50 (TNFα; [4])?
A: 6.77

Q: `CC(C)(O)[C@H](F)CNC(=O)c1cnc(-c2ccc3cc(C#N)cnn23)cc1Nc1cnn([C@H]2CCNC2)c1` [Example 223, 6-(3-cyanopyrrolo[1,2-b]pyridazin-7-yl)-N-((R)-2-fluoro-3-hydroxy-3-methylbutyl)-4-((1-((S)-pyrrolidin-3-yl)-1H-pyrazol-4-yl)amino) nicotinamide] was tested. Which pIC50 (IRAK4 enzyme; [3]) did it give?
A: > 9.00

Q: What about the pEC50 (TNFα; [2]) of the same molecule?
A: 7.89

Q: With `CC(=O)NC12CCC(NC(=O)c3cnc(-c4ccc5cc(C#N)cnn45)cc3NC(C)C)(CC1)CC2` [Example 131, N-(4-acetamido-bicyclo[2.2.2]octan-1-yl)-6-(3-cyanopyrrolo[1,2-b]pyridazin-7-yl)-4-(isopropylamino) nicotinamide] as the molecule, how does the pIC50 (IRAK4 enzyme; [3]) read?
A: 9.00

Q: And the pEC50 (TNFα; [2])?
A: 6.81

Q: What does the source list for `N#Cc1cnn2c(-c3cc(NC45CCC(O)(CC4)CC5)c(C(=O)NCC(=O)N4CCC4)cn3)ccc2c1` [Example 923, N-(2-(azetidin-1-yl)-2-oxoethyl)-6-(3-cyanopyrrolo[1,2-b]pyridazin-7-yl)-4-((4-hydroxybicyclo[2.2.2]octan-1-yl)amino) nicotinamide]?
A: pIC50 (IRAK4 enzyme; [3]): > 9.00; pEC50 (TNFα; [4]): 7.28

Q: With `CN1CCOc2cc(Nc3cc(-c4ccc5cc(C#N)cnn45)ncc3C(=O)N[C@H]3CC[C@H](NC(=O)C4CC4)CC3)ccc21` [Example 859, 6-(3-cyanopyrrolo[1,2-b]pyridazin-7-yl)-N-((1r,4r)-4-(cyclopropanecarboxamido)cyclohexyl)-4-((4-methyl-3,4-dihydro-2H-benzo[b][1,4]oxazin-7-yl)amino)nicotinamide] as the molecule, how does the pIC50 (IRAK4 enzyme; [3]) read?
A: 8.52

Q: What about the pEC50 (TNFα; [4]) of the same molecule?
A: 7.05

Q: Which results are given for `CNC(=O)c1cnc(-c2ccc3cc(C#N)cnn23)cc1N[C@@H]1CC[C@@H](C(=O)NC)C1` [Example 466, 6-(3-cyanopyrrolo[1,2-b]pyridazin-7-yl)-N-methyl-4-(((1R,3R)-3-(methyl-carbamoyl)cyclopentyl)amino)nicotinamide]?
A: pIC50 (IRAK4 enzyme; [1]): 8.10; pEC50 (TNFα; [2]): 6.59

Q: With `CC(C)(O)[C@H](F)CNC(=O)c1cnc(-c2ccc3cc(C#N)cnn23)cc1Nc1ncccn1` [Example 587, (R)-6-(3-cyanopyrrolo[1,2-b]pyridazin-7-yl)-N-(2-fluoro-3-hydroxy-3-methyl-butyl)-4-(pyrimidin-2-ylamino)nicotinamide] as the molecule, how does the pIC50 (IRAK4 enzyme; [1]) read?
A: 8.52

Q: And the pEC50 (TNFα; [2])?
A: 6.82

Q: What does the source list for `CC(C)(O)[C@H](F)CNC(=O)c1cnc(-c2ccc3cc(C#N)cnn23)cc1NC1CCCC(S(C)(=O)=O)C1` (single isomer, unassigned) [Example 515]?
A: pIC50 (IRAK4 enzyme; [1]): 8.30; pEC50 (TNFα; [2]): 6.28

Q: How did the pIC50 (IRAK4 enzyme; [1]) turn out when `CC(=O)OC12CCC(Nc3cc(-c4ccc5cc(C#N)cnn45)ncc3C(=O)NC[C@@H](F)C(C)(C)OC(C)=O)(CC1)CC2` [Example 417, 4-((5-(((R)-3-acetoxy-2-fluoro-3-methylbutyl)carbamoyl)-2-(3-cyanopyrrolo[1,2-b]pyridazin-7-yl)pyridin-4-yl)amino)bicyclo[2.2.2]octan-1-yl acetate] was run?
A: 8.30

Q: And the pEC50 (TNFα; [2])?
A: 6.82

Q: With `CC(C)(C)OC(=O)NCC12CC(Nc3cc(-c4ccc5cc(C#N)cnn45)ncc3C(=O)NC[C@@H](F)C(C)(C)O)(C1)C2` [Example 550, (R)-tert-butyl ((3-((2-(3-cyanopyrrolo[1,2-b]pyridazin-7-yl)-5-((2-fluoro-3-hydroxy-3-methylbutyl)carbamoyl)pyridin-4-yl)amino)bicyclo[1.1.1]pentan-1-yl)methyl)carbamate] as the molecule, how does the pIC50 (IRAK4 enzyme; [1]) read?
A: 8.70

Q: And the pEC50 (TNFα; [2])?
A: 6.44

Q: Which results are given for `CC(C)(O)[C@H](F)CNC(=O)c1cnc(-c2ccc3cc(C#N)cnn23)cc1N[C@@H]1C[C@@H]2CC[C@H]1O2` [Example 93, 4-(((1R,2R,4S)-7-oxabicyclo[2.2.1]heptan-2-yl)amino)-6-(3-cyano-pyrrolo[1,2-b]pyridazin-7-yl)-N-((R)-2-fluoro-3-hydroxy-3-methylbutyl)nicotinamide]?
A: pIC50 (IRAK4 enzyme; [3]): 9.00; pEC50 (TNFα; [2]): 7.11

Q: How did the pIC50 (IRAK4 enzyme; [3]) turn out when `COCC(=O)N[C@H]1CC[C@H](Nc2cc(-c3ccc4cc(C#N)cnn34)ncc2C(=O)NC[C@@H](F)C(C)(C)O)CC1` [Example 284, 6-(3-cyanopyrrolo[1,2-b]pyridazin-7-yl)-N-((R)-2-fluoro-3-hydroxy-3-methylbutyl)-4-(((1r,4R)-4-(2-methoxyacetamido)cyclohexyl)amino) nicotinamide] was run?
A: 9.00

Q: What about the pEC50 (TNFα; [2]) of the same molecule?
A: 7.06

Q: What does the source list for `CC(C)(O)[C@H](F)CNC(=O)c1cnc(-c2ccc3cc(C#N)cnn23)cc1Nc1cnc(-c2ccc3cc(C#N)cnn23)nc1` [Example 966, (R)-6-(3-cyanopyrrolo[1,2-b]pyridazin-7-yl)-4-((2-(3-cyanopyrrolo[1,2-b]pyridazin-7-yl)pyrimidin-5-yl)amino)-N-(2-fluoro-3-hydroxy-3-methylbutyl) nicotinamide]?
A: pIC50 (IRAK4 enzyme; [3]): 8.70; pEC50 (TNFα; [4]): < 5.00

Q: How did the pIC50 (IRAK4 enzyme; [1]) turn out when `CC(C)(O)[C@H](F)CNC(=O)c1cnc(-c2ccc3cc(C#N)cnn23)cc1Nc1cncc(C#N)c1` [Example 610, (R)-4-((5-cyanopyridin-3-yl)amino)-6-(3-cyano-pyrrolo[1,2-b]pyridazin-7-yl)-N-(2-fluoro-3-hydroxy-3-methylbutyl)nicotinamide] was run?
A: > 9.00

Q: What about the pEC50 (TNFα; [2]) of the same molecule?
A: 7.30

Q: How did the pIC50 (IRAK4 enzyme; [3]) turn out when `CC(C)(O)[C@H](F)CNC(=O)c1cnc(-c2ccc3cc(C#N)cnn23)cc1Nc1ccc(-c2cn[nH]c2)cn1` [Example 956, (R)-4-((5-(1H-pyrazol-4-yl)pyridin-2-yl)amino)-6-(3-cyanopyrrolo[1,2-b]pyridazin-7-yl)-N-(2-fluoro-3-hydroxy-3-methyl-butyl)nicotinamide] was run?
A: > 9.00

Q: What about the pEC50 (TNFα; [4]) of the same molecule?
A: 7.51

Q: With `CC(C)(O)[C@H](F)CNC(=O)c1cnc(-c2ccc3cc(C#N)cnn23)cc1Nc1ccc(Cl)nc1` [Example 965, (R)-4-((6-chloropyridin-3-yl)amino)-6-(3-cyanopyrrolo[1,2-b]pyridazin-7-yl)-N-(2-fluoro-3-hydroxy-3-methylbutyl)nicotinamide] as the molecule, how does the pIC50 (IRAK4 enzyme; [3]) read?
A: > 9.00

Q: And the pEC50 (TNFα; [4])?
A: 7.59

Q: `CC(=O)NC12CC(Nc3cc(-c4ccc5cc(C#N)cnn45)ncc3C(=O)NCC(F)(F)F)(C1)C2` [Example 277, 4-((3-acetamido-bicyclo[1.1.1]pentan-1-yl)amino)-6-(3-cyano-pyrrolo[1,2-b]pyridazin-7-yl)-N-(2,2,2-trifluoroethyl) nicotinamide] was tested. Which pIC50 (IRAK4 enzyme; [3]) did it give?
A: 8.30

Q: What about the pEC50 (TNFα; [2]) of the same molecule?
A: 6.42

Q: What does the source list for `CC(C)(O)[C@H](F)CNC(=O)c1cnc(-c2ccc3cc(C#N)cnn23)cc1N[C@@H]1CCOC[C@@H]1F` [Example 57, 6-(3-cyanopyrrolo[1,2-b]pyridazin-7-yl)-N-((R)-2-fluoro-3-hydroxy-3-methylbutyl)-4-(((3R,4R)-3-fluorotetrahydro-2H-pyran-4-yl)amino)nicotinamide]?
A: pIC50 (IRAK4 enzyme; [3]): > 9.00; pEC50 (TNFα; [2]): 7.34

Q: Which results are given for `COC(=O)NCC1(F)CC(Nc2cc(-c3ccc4cc(C#N)cnn34)ncc2C(=O)NC[C@@H](F)C(C)(C)O)C1` (single isomer, unassigned) [Example 764]?
A: pIC50 (IRAK4 enzyme; [1]): > 9.00; pEC50 (TNFα; LPS-stimulated human monocytes, TNFα content): 8.10

Q: With `CC(C)(O)[C@H](F)CNC(=O)c1cnc(-c2ccc3cc(C#N)cnn23)cc1NCC1CN(CC(F)(F)F)C1` [Example 907, (R)-6-(3-cyanopyrrolo[1,2-b]pyridazin-7-yl)-N-(2-fluoro-3-hydroxy-3-methylbutyl)-4-(((1-(2,2,2-trifluoroethyl)azetidin-3-yl)methyl)amino) nicotinamide] as the molecule, how does the pIC50 (IRAK4 enzyme; [3]) read?
A: 8.00

Q: And the pEC50 (TNFα; [4])?
A: 7.04

Q: With `CN1CCN(C(=O)CNC(=O)c2cnc(-c3ccc4cc(C#N)cnn34)cc2NC23CCC(O)(CC2)CC3)CC1` [Example 789, 6-(3-cyanopyrrolo[1,2-b]pyridazin-7-yl)-4-((4-hydroxybicyclo[2.2.2]octan-1-yl)amino)-N-(2-(4-methylpiperazin-1-yl)-2-oxoethyl)nicotinamide] as the molecule, how does the pIC50 (IRAK4 enzyme; [1]) read?
A: > 9.00

Q: And the pEC50 (TNFα; [2])?
A: 7.70

Q: `COC(=O)NC1(c2ccc(Nc3cc(-c4ccc5cc(C#N)cnn45)ncc3C(=O)NC[C@@H](F)C(C)(C)O)cc2)CC1` [Example 212, (R)-methyl (1-(4-((2-(3-cyanopyrrolo[1,2-b]pyridazin-7-yl)-5-((2-fluoro-3-hydroxy-3-methylbutyl)carbamoyl)pyridin-4-yl)amino)phenyl)cyclopropyl)carbamate] was tested. Which pIC50 (IRAK4 enzyme; [3]) did it give?
A: > 9.00

Q: What about the pEC50 (TNFα; [2]) of the same molecule?
A: 7.89

Q: `CC(C)(O)[C@H](F)CNC(=O)c1cnc(-c2ccc3cc(C#N)cnn23)cc1N[C@H]1CC[C@H](NCC(F)(F)F)CC1` [Example 289, 6-(3-cyanopyrrolo[1,2-b]pyridazin-7-yl)-N-((R)-2-fluoro-3-hydroxy-3-methylbutyl)-4-(((1r,4R)-4-((2,2,2-trifluoroethyl)amino)cyclohexyl)amino)nicotinamide] was tested. Which pIC50 (IRAK4 enzyme) did it give?
A: 9.00

Q: What about the pEC50 (TNFα; Homo sapiens, Monocyte) of the same molecule?
A: 7.18
